Experimental data from patent US20250276999A1, “PEPTIDES FOR PROMOTING HAIR FOLLICLE NEOGENESIS, AND PREVENTION/MITIGATION OF UNTOWARD EFFECTS OF RADIATION TREATMENT” (Trustees of Tufts College, priority 2022, published 2025).

Tested on: hair follicle neogenesis
Assay: Patch assay, hair follicle neogenesis in vivo
Parameters: species or system nu/nu mouse
Conditions: 100 μM peptide vs scrambled peptide, N=3 patches (FIG. 2)
Description: Next, we used a patch assay to test is TSN peptides can induce hair follicle neogenesis in vivo. Epidermal aggregates were resuspended in DMEM/F12 at 750,000 aggregates/750 μL (1000 aggregates/μL) and spheroids were resuspended in DMEM/F12 at 1400 spheroids/140 μL (10 spheroids/μL). 10 million dermal cells were resuspended in 400 μL DMEM/F12 (25,000 cell/μL or 1.25E6 per 50 μL). […] Using a dissecting microscope the number of hair follicles were counted for each implantation from the mucosal side of the skin (FIG. 2).
Preparation of spheroids: Dermal Papilla (DP) cells were trypsinized, neutralized and counted. […]
Preparation of epidermal Cell aggregates: From 12 neonatal foreskins, the epidermis was separated from the dermis using dispase incubation overnight. […] The final pellet was resuspended in 6 mL DMEM/F12 (for 12 skins) and the aggregates were counted using hemocytometer. […]

HSPDIQLQKGLTFEPIQIK [TSN6, 19 amino acid peptide derived from multimerin-1, Coiled coil domain]
number of hair follicles (hair follicle formation): two-fold increase
